In patent publication US20250339409A1, “USES OF PAN BET INHIBITORS” (VYNE THERAPEUTICS INC., priority 2021, published 2025):

Tests used:
[1] = system: reconstituted human epidermis stimulated with TNF-α and IFN-γ; assay: Reconstituted human epidermis (RHE) vitiligo model: morphological analysis after H/E staining; type: cell-based; conditions: topical on RHE, 48 h
Protocol: To generate the morphological and functional aspects of vitiligo, in vitro reconstituted epidermis with Normal Human Epidermal Keratinocytes (NHEK) and Normal Human Epidermal Melanocytes, darkly pigmented (NHEM-DP) are exposed to a cytokine cocktail (TNF-α and IFN-γ). The cytokine cocktail is applied during 48 hours in the culture medium of epidermis. NHEK are isolated from the fore skin of 3 Caucasian donors, and NHEM-DP are isolated from 1 donor. The tissues are cultured at the air-liquid interface in Epilife medium (Fisher Scientific, M-EPI-500-A) containing supplements and antibiotics (Gentamycin, Fisher Scientific, 15710-049). […] Three epidermis samples per condition are fixed in 4% formaldehyde solution and embedded in paraffin for further analysis (morphology analysis, melanin and melanocytes localisation/quantification). […] The tissue morphology is analyzed through a Hematoxylin/Eosin (H/E) staining. […] Formulations containing four doses of BETi1, the BETi1 vehicle (placebo) and JAK inhibitor, were evaluated in RHE TNF-α/IFN-γ vitiligo model as described in Experimental section Methods C and D and representative images of H/E stained epidermis sections are shown in FIG. 4A-H. Treatments of the RHEs with each of the formulations were initiated at day 9 of their reconstitution process. […]

[2] = system: melanin in basal layers of RHE; assay: RHE vitiligo model: melanin content and localization by Fontana Masson staining; type: cell-based, human
Excerpt: Melanin deposition on 6 μm paraffin sections of each epidermis (n=3) are highlighted through staining with Fontana Masson reagents (VWR—VWRK641295, VWRK641311; Klinipath—641215). Slides are mounted with specific medium and examined with a Nikon Eclipse (Ni-E) photomicroscope coupled to a numerical camera (DS-Ri2)
For the melanin quantification, three images of each epidermis are taken and analysed using the NIS-Element AR software (Nikon). For the quantification of melanin, a region of interest (ROI) is first defined and measured in the epidermis. This region includes only the basal layers. Then, two measures are taken by the software in this ROI. The first one represents the labelled surface on the ROI, and thus the area occupied by the melanin in the ROI. The second one corresponds to the global intensity of the staining in the ROI, reflecting a lighter or darker melanin. The relative quantification of melanin in the ROI is then performed by multiplying these two measures. To normalize the results to a given surface, this value was then divided by the surface of the ROI.
Formulations containing four doses of BETi1 the BETi1 vehicle (placebo), were evaluated in RHE TNF-α/IFN-γ vitiligo model as described Experimental section Method F and representative images of […] epidermis sections are shown in FIG. 6A-G. The images according to this method are consistent with the images with H/E stained epidermis sections and shown in FIG. 4A-H.
Results of the quantification of melanin in basal layers of epidermis stimulated or not with the cytokine cocktail to induce melanocytorhagy and treated with the test items are shown in FIG. 6H. The results are expressed with normalization to the surface of region of interest (ROI) corresponding to the 2-3 basal layers of the RHEs. […] As for TRP-1 staining, the effects of the ruxolitinib cream at 1% on melanin content could not be assessed given that the sections have detached from the glass slides during the staining process (probably without being bound by any theory may be due to the bad structure of the epidermis).

## Cn1cc(-c2cccc(O)c2Oc2ccccc2)c2cc[nH]c2c1=O [BETi1]
[1]
  morphological alteration of RHE (H/E staining): did not induce any morphological alteration
[2]; basal layers of RHE
  melanin retained relative to unstimulated control: approximately 75%
  residual melanin levels, % of stimulated/untreated control: about 367%
[2]; stimulated RHE, vs vehicle
  melanin content in the basal layers: significantly increase the melanin content in the basal layers
